Patent US11198680B2 (BioAxone BioSciences, Inc., priority 2016, dated 2021)
Like-named read-outs stand apart in the source and are kept apart here.

What was measured:
[1] = Brain concentration after IV BA-1049 (R), LC-MS/MS; format: in vivo; details: mouse
Procedure: Mice are dosed either by intravenous (IV) administration or oral (PO) administration via oral gavage.
After IV dosing, brains are collected from 4 mice at each time point: 0.083 hr, 0.5 hr, 2 hr, 6 hr, 12 hr, and 24 hr after dose. Each mouse is euthanized by CO2. The entire brains are removed, weighed, rinsed with PBS, placed in tubes, and snap frozen in liquid nitrogen.
Brain tissue was homogenized in 1 mL/g PBS. Brain homogenates are precipitated by pipetting 200 μL of homogenate into a tube using aseptically cut off 1000 μL pipette tips to prevent clogging.

[2] = test system: Rho/ROCK activity (MLC2 diphosphorylation) in HUVECs; test: LPA-treated HUVECs, pMLC2 T18/S19 immunoblot; format: cell-based, human
Procedure: (§5) Cell lines were exposed to each dose for 1 hr, and then are stimulated with 20 μM LPA for either 5 min or 1 hr as described below. All experiments were conducted in triplicate and analyzed by two independent assessors blinded to both cell line and treatment.
Cells were subjected to biochemical analysis of diphosphorylated MLC2 (Threonine 18/Serine 19 phosphorylation sites) and cofilin (Serine 9 phosphorylation site) using SDS-PAGE and immunoblotting. Cells were plated in 24-well tissue culture plates coated with 70 μg/ml rat collagen-1 (Corning; Corning, N.Y.), and grown for 2 d to 3 d at 37° C./5% CO2 until confluency. […] Then medium was exchanged for Medium 200 supplemented with 0.1% HSA (Sigma-Aldrich) and 20 μM of LPA (Santa Cruz Biotech; Santa Cruz, Calif.) and incubated for 5 min. After LPA stimulation, proteins were extracted from cells by lysis with RIPA buffer supplemented with HALT complete protease/phosphatase inhibitor (ThermoFisher, Waltham, Mass.), reduced and denatured using Laemmli sample buffer (BioRad, Hercules, Calif.)/beta-mercaptoethanol and subjected to SDS-PAGE.
Denatured samples were electrophoresed in reducing 10% Bis-Tris-gels polyacrylamide gels (Novex; Thermo-Fisher, Waltham, Mass.) and were transferred onto 0.25 μm PVDF membranes (EMD Millipore, Billerica, Mass.). Membranes are probed using amti-pMLC2 T18/S19 (1:500; Cell Signaling, Danvers, Mass.) or anti-pCofilin S9 (1:500, Cell Signaling, Danvers, Mass.) and anti-glyceraldehyde 3-phosphate dehydrogenase loading control (GAPDH, 1:10000; Abcam). Protein levels were detected using chemiluminescence substrate (Super Signal West, ThermoFisher, Waltham, Mass.) and images captured using a FluoroChem SP Imaging System.

[3] = test system: HUVEC monolayer; test: LPA-treated HUVECs, endothelial monolayer integrity; format: cell-based, human; details: 1 μM or 10 μM, 20 μM LPA 60 min
Procedure: as §5
To examine HUVEC monolayer integrity, cells were plated on PDL-coated coverslips (Corning) coated with fibronectin, collagen-1 and gelatin. 50,000 cells were seeded on each coverslip situated in a 24-well plate. Cells were grown for 3 days at 37° C./5% CO2. […] The medium was exchanged by Medium 200 supplemented with 0.1% HSA and 20 μM of LPA (Santa Cruz) and incubated for 60 min.
After LPA stimulation, cells were fixed with 4% paraformaldehyde and stained for actin-phalloidin (ThermoFisher, Waltham, Mass.) and V-Cadherin (Cell Signaling, Danvers, Mass.) and mounted on microscope slides. Coverslips were imaged by fluorescence microscopy and the cell free holes in the monolayer are measured using Image J (freeware; https://imagej.nih.gov/ij/).

[4] = test system: intracellular ROCK activity (ppMLC2 T18/S19) in HUVECs; test: HUVEC ppMLC2 dose-response; format: cell-based, human; details: for EC50: 1 h exposure, read-out: EC50 for reduction of MLC2 diphosphorylation; for maximum reduction of ppMLC2 levels: highest dose tested 1 mM, 1 h
Procedure: Cells were exposed to each dose for 1 h. All experiments were conducted in triplicate and analyzed by 2 independent assessors blinded to the compound and compound concentration.
Cells were subjected to biochemical protein analysis of di-phosphorylated MLC2 (Threonine 18/Serine 19 phosphorylation sites) using SDS-PAGE and immunoblotting. Cells were plated in a 24-well tissue culture plates, coated with 70 μg/ml rat collagen-1 (Corning) and grown for 2-3 days at 37° C./5% CO2 until confluency. […] Drugs were diluted in Medium 200 (Thermo Fisher Scientific) supplemented with 0.1% human serum albumin (HSA, Sigma-Aldrich). After 1 h, cells were lysed with RIPA buffer (Boston Bioproducts; Ashland, Mass.) supplemented with complete protease/phosphatase inhibitors (HALT, Thermo Fisher Scientific), reduced, and denatured with Laemmli sample buffer (BioRad)/beta-mercaptoethanol. Denatured samples were electrophoresed in reducing 10% Bis-Tris-PA gels (Novex) and then transferred onto 0.25 μm PVDF membranes (EMD Millipore). Membranes were incubated with 4% bovine serum albumin solution to block unspecific antibody binding sites and then immunolabeled for ppMLC2 T18/S19 (1:500, Cell Signaling) and glyceraldehyde 3-phosphate dehydrogenase loading control (GAPDH, 1:10,000; Abcam). Protein levels were detected using a chemiluminescence substrate (Super Signal West, ThermoFisher) and were captured with FluoroChem SP imaging system. Chemiluminescence of ppMLC2 and GAPDH was measured by densitometric analysis. ppMLC2 signal was normalized against GAPDH signal plotted as percentage of no treatment control (0 μM). EC50 values were determined by dose-response analysis using GraphPad software.

[5] = biological target: ALK (Homo sapiens (Human), UniProt Q9UM73); test: KINOMEscan kinome screen; details: percent of negative control binding
Text: (§1) The KINOMEscan™ screening platform (DiscoverX, Fremont, Calif.) employs a novel active site-directed competition binding assay to quantitatively measure interactions between test compounds and more than 450 human kinases and disease relevant mutant variants. […] Compounds that bind the kinase active site and directly (sterically) or indirectly (allosterically) prevent kinase binding to the immobilized ligand, will reduce the amount of kinase captured on the solid support. […] Screening “hits” are identified by measuring the amount of kinase captured in test versus control samples by using a quantitative, precise and ultra-sensitive qPCR method that detects the associated DNA label.
(§2) Kinase-tagged T7 phage strains were grown in parallel in 24-well blocks in an E. coli host derived from the BL21 strain. E. coli were grown to log-phase and infected with T7 phage from a frozen stock (multiplicity of infection=0.4) and incubated with shaking at 32° C. until lysis (90-150 minutes). The lysates were centrifuged (6,000×g) and filtered (0.2 μm) to remove cell debris. The remaining kinases were produced in HEK-293 cells and subsequently tagged with DNA for qPCR detection (Wein, et al. (2016) Nat. Comm. 7). […] Test compounds were prepared as 40× stocks in 100% DMSO and directly diluted into the assay. All reactions were performed in polypropylene 384-well plates in a final volume of 0.02 ml.

[6] = biological target: FGFR4 (Homo sapiens (Human), UniProt P22455); test: KINOMEscan kinome screen; details: percent of negative control binding
Text: as §1, §2

[7] = biological target: IRAK3 (Homo sapiens (Human), UniProt Q9Y616); test: KINOMEscan kinome screen; details: percent of negative control binding
Text: as §1, §2

[8] = biological target: MARK1 (Homo sapiens (Human), UniProt Q9P0L2); test: KINOMEscan kinome screen; details: percent of negative control binding
Chain of MARK1 (Q9P0L2 whole entry): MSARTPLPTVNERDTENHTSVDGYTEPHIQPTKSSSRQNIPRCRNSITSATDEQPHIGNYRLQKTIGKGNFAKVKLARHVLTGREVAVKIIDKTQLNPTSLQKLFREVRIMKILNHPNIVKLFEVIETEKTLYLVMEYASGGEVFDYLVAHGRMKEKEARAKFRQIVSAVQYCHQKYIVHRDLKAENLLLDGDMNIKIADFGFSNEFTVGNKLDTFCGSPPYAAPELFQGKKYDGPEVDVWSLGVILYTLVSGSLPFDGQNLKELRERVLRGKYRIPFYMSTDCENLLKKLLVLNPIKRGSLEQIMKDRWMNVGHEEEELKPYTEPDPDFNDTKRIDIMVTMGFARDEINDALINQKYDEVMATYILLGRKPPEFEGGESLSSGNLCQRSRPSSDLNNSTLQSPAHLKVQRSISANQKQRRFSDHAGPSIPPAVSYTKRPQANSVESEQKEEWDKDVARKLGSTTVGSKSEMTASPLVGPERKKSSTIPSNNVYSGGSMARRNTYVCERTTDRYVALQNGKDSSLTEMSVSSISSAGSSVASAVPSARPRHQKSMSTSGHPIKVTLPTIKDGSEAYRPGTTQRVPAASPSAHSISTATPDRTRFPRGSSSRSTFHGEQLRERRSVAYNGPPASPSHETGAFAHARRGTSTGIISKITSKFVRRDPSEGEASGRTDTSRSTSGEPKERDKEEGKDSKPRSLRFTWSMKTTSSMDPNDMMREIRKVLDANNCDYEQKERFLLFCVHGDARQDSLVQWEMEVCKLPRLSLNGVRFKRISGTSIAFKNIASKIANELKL
Text: as §1, §2

[9] = biological target: MARK2 (Homo sapiens (Human), UniProt Q7KZI7); test: KINOMEscan kinome screen; details: percent of negative control binding
Text: as §1, §2

[10] = biological target: MARK3 (Homo sapiens (Human), UniProt P27448); test: KINOMEscan kinome screen; details: percent of negative control binding
Chain of MARK3 (P27448 whole entry): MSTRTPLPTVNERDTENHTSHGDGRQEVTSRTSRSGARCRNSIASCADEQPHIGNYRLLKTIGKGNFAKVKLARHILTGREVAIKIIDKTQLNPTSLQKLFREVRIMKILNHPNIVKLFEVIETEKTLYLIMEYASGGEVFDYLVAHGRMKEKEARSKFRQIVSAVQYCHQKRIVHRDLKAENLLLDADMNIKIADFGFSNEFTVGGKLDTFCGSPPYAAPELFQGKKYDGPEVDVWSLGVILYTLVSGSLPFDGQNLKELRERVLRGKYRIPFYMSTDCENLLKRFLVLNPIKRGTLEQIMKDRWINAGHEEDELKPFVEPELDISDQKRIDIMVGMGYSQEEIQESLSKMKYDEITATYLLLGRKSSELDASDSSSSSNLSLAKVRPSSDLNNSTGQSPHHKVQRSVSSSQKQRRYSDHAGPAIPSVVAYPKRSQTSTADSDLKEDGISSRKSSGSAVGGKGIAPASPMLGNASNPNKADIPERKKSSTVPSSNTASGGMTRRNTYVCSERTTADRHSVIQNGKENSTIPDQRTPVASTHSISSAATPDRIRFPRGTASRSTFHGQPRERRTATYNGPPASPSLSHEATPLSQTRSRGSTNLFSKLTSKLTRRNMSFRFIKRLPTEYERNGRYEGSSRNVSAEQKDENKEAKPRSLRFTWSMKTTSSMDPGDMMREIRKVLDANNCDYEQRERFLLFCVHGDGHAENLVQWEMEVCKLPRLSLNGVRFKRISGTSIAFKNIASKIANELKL
Text: as §1, §2

[11] = biological target: MARK4 (Homo sapiens (Human), UniProt Q96L34); test: KINOMEscan kinome screen; details: percent of negative control binding
Chain of MARK4 (Q96L34 whole entry): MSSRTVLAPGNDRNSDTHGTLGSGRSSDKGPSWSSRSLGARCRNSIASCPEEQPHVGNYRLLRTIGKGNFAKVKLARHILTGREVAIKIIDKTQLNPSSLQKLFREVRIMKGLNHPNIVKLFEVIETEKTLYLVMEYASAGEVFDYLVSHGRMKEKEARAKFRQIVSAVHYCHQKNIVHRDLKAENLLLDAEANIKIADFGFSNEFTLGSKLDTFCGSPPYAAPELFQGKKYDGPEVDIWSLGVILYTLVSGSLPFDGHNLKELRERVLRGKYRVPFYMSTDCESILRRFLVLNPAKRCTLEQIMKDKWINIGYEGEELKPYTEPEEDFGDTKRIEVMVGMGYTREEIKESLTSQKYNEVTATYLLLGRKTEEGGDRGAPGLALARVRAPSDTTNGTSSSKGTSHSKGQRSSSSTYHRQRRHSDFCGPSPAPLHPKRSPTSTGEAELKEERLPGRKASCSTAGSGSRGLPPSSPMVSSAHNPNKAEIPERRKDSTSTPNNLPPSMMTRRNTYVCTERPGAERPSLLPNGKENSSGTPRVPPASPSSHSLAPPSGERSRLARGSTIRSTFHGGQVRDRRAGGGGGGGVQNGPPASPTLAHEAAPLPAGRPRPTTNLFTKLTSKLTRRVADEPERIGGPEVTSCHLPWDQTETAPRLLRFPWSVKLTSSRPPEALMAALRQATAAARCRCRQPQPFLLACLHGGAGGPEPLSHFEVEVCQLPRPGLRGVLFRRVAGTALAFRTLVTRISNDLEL
Text: as §1, §2

[12] = biological target: MEK1 (Homo sapiens (Human), UniProt Q02750); test: KINOMEscan kinome screen; details: percent of negative control binding
Text: as §1, §2

[13] = biological target: MEK2 (Homo sapiens (Human), UniProt P36507); test: KINOMEscan kinome screen; details: percent of negative control binding
Text: as §1, §2

[14] = biological target: PRKCQ (Homo sapiens (Human), UniProt Q04759); test: KINOMEscan kinome screen; details: percent of negative control binding
Text: as §1, §2

[15] = biological target: SLK (Homo sapiens (Human), UniProt Q9H2G2); test: KINOMEscan kinome screen; details: percent of negative control binding
Chain of SLK (Q9H2G2 whole entry): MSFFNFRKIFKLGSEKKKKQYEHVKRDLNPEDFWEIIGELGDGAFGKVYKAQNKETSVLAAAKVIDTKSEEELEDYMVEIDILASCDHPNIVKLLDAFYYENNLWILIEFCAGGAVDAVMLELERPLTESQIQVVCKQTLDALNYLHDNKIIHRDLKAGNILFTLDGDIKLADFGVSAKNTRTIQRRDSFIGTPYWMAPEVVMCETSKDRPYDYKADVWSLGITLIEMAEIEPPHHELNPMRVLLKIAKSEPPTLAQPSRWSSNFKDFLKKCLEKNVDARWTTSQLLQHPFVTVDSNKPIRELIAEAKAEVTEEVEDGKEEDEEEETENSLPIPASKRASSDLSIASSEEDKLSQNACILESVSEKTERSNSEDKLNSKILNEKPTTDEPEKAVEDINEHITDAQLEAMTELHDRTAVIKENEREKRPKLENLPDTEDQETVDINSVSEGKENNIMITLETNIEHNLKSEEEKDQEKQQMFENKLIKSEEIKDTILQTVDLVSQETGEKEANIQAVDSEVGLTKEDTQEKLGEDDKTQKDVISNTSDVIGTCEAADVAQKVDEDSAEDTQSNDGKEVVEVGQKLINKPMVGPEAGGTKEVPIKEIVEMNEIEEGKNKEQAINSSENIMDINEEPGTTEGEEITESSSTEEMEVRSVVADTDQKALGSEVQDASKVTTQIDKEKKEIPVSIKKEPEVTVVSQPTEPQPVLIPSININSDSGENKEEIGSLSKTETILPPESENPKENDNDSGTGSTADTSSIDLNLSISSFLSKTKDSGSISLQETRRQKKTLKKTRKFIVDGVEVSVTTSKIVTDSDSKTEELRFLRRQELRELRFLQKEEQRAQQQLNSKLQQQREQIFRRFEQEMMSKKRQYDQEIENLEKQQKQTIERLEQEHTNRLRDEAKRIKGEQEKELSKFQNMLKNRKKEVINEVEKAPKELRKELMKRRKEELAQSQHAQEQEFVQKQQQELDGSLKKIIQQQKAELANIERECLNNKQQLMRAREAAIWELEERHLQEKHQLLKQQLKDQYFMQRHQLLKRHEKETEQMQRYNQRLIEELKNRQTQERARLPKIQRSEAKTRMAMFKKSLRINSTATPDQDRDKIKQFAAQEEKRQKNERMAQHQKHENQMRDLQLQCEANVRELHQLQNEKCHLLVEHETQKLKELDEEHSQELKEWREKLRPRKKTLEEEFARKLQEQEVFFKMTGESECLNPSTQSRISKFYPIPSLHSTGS
Text: as §1, §2

[16] = test system: ROCK1; details: percent of negative control binding; second row printed ROCK1, text says ROCK1 and ROCK2
Text: as §1, §2

[17] = biological target: NET (norepinephrine transporter) (Homo sapiens (Human), UniProt P23975); test: SAFETYscan neurotransmitter transporter activity; format: cell-based
Procedure: (§3) The SAFETYscan™ (DiscoverX) is used for rapid testing of any compound against a panel that includes well-known membrane proteins of importance for drug development such as selected voltage-gated ion channels, G-protein coupled receptors, neurotransmitter transporters and also a selected group of purified cellular enzymes.
(§4) Cell lines engineered to express individual transmembrane receptor proteins such as the muscarinic acetylcholine receptor or the dopamine D1 receptor were grown in culture in their standard growth medium until reaching confluence. […] The experiment also contains controls for comparison including known agonists and antagonists of the targeted membrane proteins.

[18] = biological target: SERT (serotonin transporter) (Homo sapiens (Human), UniProt P31645); test: SAFETYscan neurotransmitter transporter activity; format: cell-based
Procedure: as §3, §4

[19] = Daily repeat dosing for 2 weeks in normal mice, adverse effects; format: in vivo, mouse
Procedure: In a separate set of experiments, daily repeat dosing experiments were performed to assess adverse effects. […] During the course of the experiment, animals were monitored daily for the appearance of any clinical signs. Hematology, blood chemistry, and histopathology were followed at termination of the experiment.

[20] = test system: canine hepatocytes; test: Metabolism in cultured hepatocytes; format: in vitro ADME; details: Dog hepatocytes
[21] = SAFETYscan off-target panel, all targets; details: 10 μM; except 5-HT2b-receptor
Procedure: as §3, §4
For assays using purified enzymes, an enzyme assay is set up in standard reaction buffer and necessary indicators for activity such as co-factors, buffers and synthetic substrates. […] As positive controls, a binding assay using Rho kinase (ROCK) was included in the panel. Other targets in the panel included G-protein coupled receptors, nuclear hormone receptors, intracellular non-kinase enzymes, ion channels, and neurotransmitter transporters. The specific targets were chosen because of their previous known associations with being the source of problematic off-target effects in cellular or whole animal studies.

[22] = biological target: ROCK1 (Homo sapiens (Human), UniProt Q13464); test: biochemical
Chain of ROCK1 (Homo sapiens (Human), UniProt Q13464) (Q13464 2-1354 limits assumed): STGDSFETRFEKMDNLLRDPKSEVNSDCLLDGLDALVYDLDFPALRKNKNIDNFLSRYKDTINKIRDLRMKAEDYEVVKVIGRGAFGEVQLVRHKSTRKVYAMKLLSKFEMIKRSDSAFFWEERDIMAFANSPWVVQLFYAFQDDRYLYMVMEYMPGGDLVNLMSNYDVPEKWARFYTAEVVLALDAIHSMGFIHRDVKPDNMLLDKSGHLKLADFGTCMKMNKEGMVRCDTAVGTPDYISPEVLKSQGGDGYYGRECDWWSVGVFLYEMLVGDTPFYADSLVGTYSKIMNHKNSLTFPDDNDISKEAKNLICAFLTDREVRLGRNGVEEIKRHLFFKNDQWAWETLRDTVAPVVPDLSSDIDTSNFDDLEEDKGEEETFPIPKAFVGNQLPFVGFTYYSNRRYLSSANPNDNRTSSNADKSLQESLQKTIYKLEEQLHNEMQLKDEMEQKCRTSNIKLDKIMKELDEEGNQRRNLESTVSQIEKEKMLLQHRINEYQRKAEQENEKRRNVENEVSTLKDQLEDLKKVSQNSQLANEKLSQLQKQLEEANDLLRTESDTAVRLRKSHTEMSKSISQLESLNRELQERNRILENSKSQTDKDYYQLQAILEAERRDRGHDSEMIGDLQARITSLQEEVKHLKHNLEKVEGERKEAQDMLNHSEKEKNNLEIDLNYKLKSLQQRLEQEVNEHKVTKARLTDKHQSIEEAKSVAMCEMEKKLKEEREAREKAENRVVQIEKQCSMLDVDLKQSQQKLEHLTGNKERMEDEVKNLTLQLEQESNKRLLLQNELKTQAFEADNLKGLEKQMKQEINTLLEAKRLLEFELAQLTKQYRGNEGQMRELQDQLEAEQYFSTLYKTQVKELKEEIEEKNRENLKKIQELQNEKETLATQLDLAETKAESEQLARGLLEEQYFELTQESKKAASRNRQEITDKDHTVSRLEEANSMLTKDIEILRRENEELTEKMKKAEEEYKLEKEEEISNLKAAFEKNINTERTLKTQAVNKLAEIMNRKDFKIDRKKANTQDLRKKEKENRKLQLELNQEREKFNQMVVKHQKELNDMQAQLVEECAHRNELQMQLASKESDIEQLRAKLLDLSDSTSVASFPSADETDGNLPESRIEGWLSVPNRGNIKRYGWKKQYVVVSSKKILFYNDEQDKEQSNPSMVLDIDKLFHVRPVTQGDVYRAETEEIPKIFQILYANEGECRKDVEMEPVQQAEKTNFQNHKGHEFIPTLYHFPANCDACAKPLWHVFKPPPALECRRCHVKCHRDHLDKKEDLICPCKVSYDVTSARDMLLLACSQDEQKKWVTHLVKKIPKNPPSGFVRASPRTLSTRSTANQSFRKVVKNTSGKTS
Procedure: (§6) The assay is performed by combining the DNA-tagged kinase, immobilized ligand, and a test compound. The ability of the test compound to compete with the immobilized ligand is measured via quantitative PCR of the DNA tag.
(§7) The highest concentration tested was 30 μM.

[23] = biological target: ROCK2 (Homo sapiens (Human), UniProt O75116); test: biochemical
Procedure: as §6, §7

Compound	maximum reduction of ppMLC2 levels [4] [%]	% Negative Binding, ALK [5] [%]	% Negative Binding, FGFR4 [6] [%]	% Negative Binding, IRAK3 [7] [%]	% Negative Binding, MARK1 [8] [%]	% Negative Binding, MARK2 [9] [%]	% Negative Binding, MARK3 [10] [%]	% Negative Binding, MARK4 [11] [%]	% Negative Binding, MEK1 [12] [%]	% Negative Binding, MEK2 [13] [%]	% Negative Binding, PRKCQ [14] [%]	% Negative Binding, SLK [15] [%]	other results
C[C@@H](N)C1CCN(S(=O)(=O)c2cccc3c(=O)[nH]ccc23)CC1 [1-hydroxy-BA-1049 (R)]	94	81	100	96	69	100	81	92	100	97	66	100	time detectable in brain after administration ([1]; in vivo, iv, 5 mg/kg): < 12 h; concentration fully abolishing MLC2 diphosphorylation ([2]; 20 μM LPA): ≥ 10 µM; effect on MLC2 diphosphorylation (pMLC2 T18/S19) ([2]; 1-100 μM 1 hr, 20 μM LPA 5 min): reduce MLC2 diphosphorylation; monolayer integrity after LPA [3]: restores monolayer integrity; EC50 [4]: 449 nM; % Negative Binding, ROCK1 [16]: 0.35%; % Inhibition of Neurotransmitter Transporter Activity, NET ([17]; 10 μM): 11%; % Inhibition of Neurotransmitter Transporter Activity, SERT ([18]; 10 μM): 14%
C[C@@H](N)C1CCN(S(=O)(=O)c2cccc3cnccc23)CC1 [BA-1049 (R)]	89	94	100	92	67	100	100	94	99	99	74	70	findings in daily repeat dosing ([19]; 1 mg/kg and 10 mg/kg once daily I.P. for 2 weeks): no abnormal findings; no observed effect level dose ([19]; 2 week repeat dose, I.P.): 10 mg/kg; metabolism by hepatocytes [20]: do not show any detectable metabolism; ½ Life [20]: >480 min; time detectable in brain after administration ([1]; 5 mg/kg BA-1049 (R) IV): at least 24 hr; EC50 ([4]; Homo sapiens, HUVEC): 3830 nM; inhibition at 10 µM [17]: 12%; inhibition at 10 µM ([18]; read-out: % Inhibition of Neurotransmitter Transporter Activity, SERT): 9%; activity against targets in the total SAFETYscan [21]: no activity against any of the targets in the total SAFETYscan™; Kd ([22]; ROCK1 KD, average of duplicate determinations, Table 5): 99 nM; Kd ([22]; ROCK1 Kd, Table 1): 110 nM; Kd ([23]; ROCK2 KD, average of duplicate determinations, Table 5): 63 nM; Kd ([23]; ROCK2 Kd, Table 1): 59 nM
